From ChEMBL document CHEMBL1140141 (J Nat Prod, 2008) come the findings set out here.

A word on the inhibition: it is the share of the control response that was lost under treatment. What is called IC50 is the concentration at which inhibition is half-maximal. Higher therefore signals a need for much substance. Usually Ki stands for the equilibrium dissociation constant of an inhibitor or competing ligand from its target. Read a low Ki as higher affinity.

A short description of data set [1]: Inhibition of L-type calcium channel at 10 uM.
In another data set the target is hERG (KCNH2) (Homo sapiens, UniProt Q12809). As to the kind of experiment: Inhibition of human ERG at 10 uM.
For data set [2], the target named is T1, Alpha-1D adrenergic receptor (Homo sapiens, UniProt P25100).
T1 sequence (P25100 whole entry): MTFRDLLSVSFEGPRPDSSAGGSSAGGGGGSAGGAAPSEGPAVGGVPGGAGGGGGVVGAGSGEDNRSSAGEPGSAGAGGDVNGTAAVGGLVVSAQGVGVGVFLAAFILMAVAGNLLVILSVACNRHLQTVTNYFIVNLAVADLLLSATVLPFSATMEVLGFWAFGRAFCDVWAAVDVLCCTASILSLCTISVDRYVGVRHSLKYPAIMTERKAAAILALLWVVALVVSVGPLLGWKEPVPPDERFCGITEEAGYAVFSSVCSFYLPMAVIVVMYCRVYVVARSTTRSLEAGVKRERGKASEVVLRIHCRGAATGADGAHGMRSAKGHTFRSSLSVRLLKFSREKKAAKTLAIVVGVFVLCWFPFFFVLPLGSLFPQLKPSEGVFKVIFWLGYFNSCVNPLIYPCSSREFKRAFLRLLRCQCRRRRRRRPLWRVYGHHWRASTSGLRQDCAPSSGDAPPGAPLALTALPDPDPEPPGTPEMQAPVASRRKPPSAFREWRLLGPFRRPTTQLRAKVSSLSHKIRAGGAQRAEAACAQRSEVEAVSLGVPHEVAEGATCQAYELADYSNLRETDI
As to the kind of experiment: Inhibition of cloned adrenergic Alpha-1D receptor.

Data set [3] addresses T2, Alpha-2A adrenergic receptor (Homo sapiens) (UniProt P08913).
T2 sequence (whole entry): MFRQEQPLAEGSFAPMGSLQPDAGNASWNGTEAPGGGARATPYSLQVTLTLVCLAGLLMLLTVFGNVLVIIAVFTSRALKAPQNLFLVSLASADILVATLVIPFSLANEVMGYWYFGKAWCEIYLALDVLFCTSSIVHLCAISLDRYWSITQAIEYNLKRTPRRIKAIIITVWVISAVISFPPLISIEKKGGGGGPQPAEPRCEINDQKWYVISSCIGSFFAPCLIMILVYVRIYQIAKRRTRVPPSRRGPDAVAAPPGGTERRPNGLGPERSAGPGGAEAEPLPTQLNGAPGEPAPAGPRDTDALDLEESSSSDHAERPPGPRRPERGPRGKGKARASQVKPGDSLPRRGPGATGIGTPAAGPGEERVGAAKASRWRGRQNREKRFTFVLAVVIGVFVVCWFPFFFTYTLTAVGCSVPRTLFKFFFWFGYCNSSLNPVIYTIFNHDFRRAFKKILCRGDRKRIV
Description: Displacement of [3H]MK912 from human cloned adrenergic alpha-2a receptor at 10 uM. (Loss of bound radioactivity is the signal in a displacement assay; it reports binding, not function.)

The target of data set [4] is T3, Alpha-2A adrenergic receptor (Homo sapiens, UniProt P08913).
T3 sequence (P08913 whole entry): T2 sequence (whole entry)
As to the kind of experiment: Displacement of [3H]MK912 from human cloned adrenergic alpha-2a receptor.

In a further data set the target is Histamine H2 receptor (Cavia porcellus, UniProt P47747). As to the kind of experiment: Displacement of [125I]-APT from histamine H2 receptor in brain of guinea pig. It counts as tissue-based.
Another data set concerns the target Histamine H3 receptor (Rattus norvegicus, UniProt Q9QYN8). Description: Displacement of [3H]SMT from histamine H3 receptor in forebrain of rat.
Data set [5] addresses T4, Alpha-1D adrenergic receptor (Homo sapiens) (UniProt P25100).
T4 sequence (whole entry): T1 sequence (P25100 whole entry)
Particulars: 10 uM.
Description: Inhibition of cloned adrenergic Alpha-1D receptor at 10 uM

For data set [6], the target named is Histamine H3 receptor (Rattus norvegicus) (UniProt Q9QYN8). Particulars: 10 uM.
Histamine H3 receptor (Rattus norvegicus), sequence (Q9QYN8 whole entry): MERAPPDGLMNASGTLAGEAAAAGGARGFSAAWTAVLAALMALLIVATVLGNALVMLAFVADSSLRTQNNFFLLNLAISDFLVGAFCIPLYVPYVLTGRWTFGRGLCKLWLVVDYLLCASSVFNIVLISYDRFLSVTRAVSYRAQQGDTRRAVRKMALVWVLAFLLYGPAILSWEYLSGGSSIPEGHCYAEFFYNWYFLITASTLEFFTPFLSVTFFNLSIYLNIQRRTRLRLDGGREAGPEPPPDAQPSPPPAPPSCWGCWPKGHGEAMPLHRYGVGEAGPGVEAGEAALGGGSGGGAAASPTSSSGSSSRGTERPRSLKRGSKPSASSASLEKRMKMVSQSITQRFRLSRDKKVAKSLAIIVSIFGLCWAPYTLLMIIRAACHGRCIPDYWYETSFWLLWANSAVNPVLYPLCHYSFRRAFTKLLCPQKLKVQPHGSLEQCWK
Description: Displacement of [3H]SMT from histamine H3 receptor in forebrain of rat at 10 uM

Histamine H3 receptor, sequence (Q9QYN8 whole entry): as above
Histamine H2 receptor, sequence (P47747 whole entry, looked up): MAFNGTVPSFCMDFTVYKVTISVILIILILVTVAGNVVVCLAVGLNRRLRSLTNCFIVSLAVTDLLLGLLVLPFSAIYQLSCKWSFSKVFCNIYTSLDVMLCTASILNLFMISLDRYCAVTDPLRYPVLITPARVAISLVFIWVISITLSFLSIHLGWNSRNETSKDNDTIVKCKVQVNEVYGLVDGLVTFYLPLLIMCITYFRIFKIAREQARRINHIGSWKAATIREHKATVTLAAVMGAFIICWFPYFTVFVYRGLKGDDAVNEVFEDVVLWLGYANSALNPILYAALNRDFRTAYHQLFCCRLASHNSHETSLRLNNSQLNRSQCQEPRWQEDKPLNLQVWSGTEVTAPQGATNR
hERG (KCNH2), sequence (Q12809 whole entry): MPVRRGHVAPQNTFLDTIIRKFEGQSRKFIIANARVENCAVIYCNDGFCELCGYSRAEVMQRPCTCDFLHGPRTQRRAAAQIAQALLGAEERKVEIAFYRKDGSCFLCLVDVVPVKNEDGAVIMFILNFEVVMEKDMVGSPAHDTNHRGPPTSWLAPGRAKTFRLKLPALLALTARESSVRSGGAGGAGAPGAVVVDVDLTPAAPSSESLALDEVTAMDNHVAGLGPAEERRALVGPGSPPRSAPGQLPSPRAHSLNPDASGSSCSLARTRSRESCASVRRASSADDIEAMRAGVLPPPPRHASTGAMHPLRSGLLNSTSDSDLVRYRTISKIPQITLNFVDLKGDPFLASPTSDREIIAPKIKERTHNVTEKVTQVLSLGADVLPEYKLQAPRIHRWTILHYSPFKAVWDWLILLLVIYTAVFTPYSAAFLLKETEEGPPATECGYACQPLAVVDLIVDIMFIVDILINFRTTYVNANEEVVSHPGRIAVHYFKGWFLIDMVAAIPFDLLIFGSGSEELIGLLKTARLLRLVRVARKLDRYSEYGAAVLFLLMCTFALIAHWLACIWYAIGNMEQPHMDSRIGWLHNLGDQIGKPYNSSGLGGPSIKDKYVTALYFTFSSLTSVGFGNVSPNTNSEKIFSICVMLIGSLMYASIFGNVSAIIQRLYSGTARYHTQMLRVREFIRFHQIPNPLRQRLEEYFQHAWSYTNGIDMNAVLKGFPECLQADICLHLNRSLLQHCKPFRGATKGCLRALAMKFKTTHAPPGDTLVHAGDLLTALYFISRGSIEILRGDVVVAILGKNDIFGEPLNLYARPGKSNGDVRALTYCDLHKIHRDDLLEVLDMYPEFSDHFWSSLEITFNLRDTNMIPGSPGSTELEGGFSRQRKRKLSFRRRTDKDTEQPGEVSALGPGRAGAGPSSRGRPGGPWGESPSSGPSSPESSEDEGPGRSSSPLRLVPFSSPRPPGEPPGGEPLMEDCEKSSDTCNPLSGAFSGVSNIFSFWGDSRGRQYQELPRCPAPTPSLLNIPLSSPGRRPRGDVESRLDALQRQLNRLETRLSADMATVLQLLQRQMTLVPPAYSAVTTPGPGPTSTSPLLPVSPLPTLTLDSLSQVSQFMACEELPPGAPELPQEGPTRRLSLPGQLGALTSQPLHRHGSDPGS

For the compound `CN(C)CCCOc1ccc(CCNC(=O)c2cc(Br)c[nH]2)cc1Br` [DISPYRIN], the inhibition in [1] was found to be 50%; in data set [3] it was 97%; in [5], 91%; in data set [6] it was 91%. On hERG (KCNH2), this compound displayed an inhibition at 10 µM of 50%. The IC50 in data set [2] was 560 nM; in [4], 185 nM; at Histamine H2 receptor, 1250 nM; on Histamine H3 receptor it was 2350 nM. In addition, the Ki was found to be 275 nM in data set [2], 69 nM in data set [4], 1020 nM on Histamine H2 receptor and 1040 nM on Histamine H3 receptor.
